test: Inhibition of spike glycoprotein S in SARS-CoV-2 pseudovirus infected human 293T/ACE2 cells assessed as inhibition of viral infection measured after 48 hrs by luciferase reporter gene assay

Structure (SMILES) | IC50 [µM]
COc1ccccc1CNC(=O)[C@]12CCC(C)(C)C[C@H]1C1=CC[C@@H]3[C@@]4(C)CC[C@H](O[C@@H]5O[C@H](CO)[C@@H](O[C@@H]6O[C@@H](C)[C@H](O)[C@@H](O)[C@H]6O)[C@H](O)[C@H]5O[C@@H]5O[C@@H](C)[C@H](O)[C@@H](O)[C@H]5O)C(C)(C)[C@@H]4CC[C@@]3(C)[C@]1(C)CC2 | 16.8
C[C@@H]1O[C@@H](O[C@H]2[C@H](O[C@H]3CC[C@]4(C)[C@H]5CC=C6[C@@H]7CC(C)(C)CC[C@]7(C(=O)NCCCc7ccccc7)CC[C@@]6(C)[C@]5(C)CC[C@H]4C3(C)C)O[C@H](CO)[C@@H](O[C@@H]3O[C@@H](C)[C@H](O)[C@@H](O)[C@H]3O)[C@@H]2O)[C@H](O)[C@H](O)[C@H]1O | 13.1
COc1cccc(NC(=O)[C@]23CCC(C)(C)C[C@H]2C2=CC[C@@H]4[C@@]5(C)CC[C@H](O[C@@H]6O[C@H](CO)[C@@H](O[C@@H]7O[C@@H](C)[C@H](O)[C@@H](O)[C@H]7O)[C@H](O)[C@H]6O[C@@H]6O[C@@H](C)[C@H](O)[C@@H](O)[C@H]6O)C(C)(C)[C@@H]5CC[C@@]4(C)[C@]2(C)CC3)c1 | 8.33
C[C@@H]1O[C@@H](O[C@H]2[C@H](O[C@H]3CC[C@]4(C)[C@H]5CC=C6[C@@H]7CC(C)(C)CC[C@]7(C(=O)NCc7cccs7)CC[C@@]6(C)[C@]5(C)CC[C@H]4C3(C)C)O[C@H](CO)[C@@H](O[C@@H]3O[C@@H](C)[C@H](O)[C@@H](O)[C@H]3O)[C@@H]2O)[C@H](O)[C@H](O)[C@H]1O | 5.89
C[C@@H]1O[C@@H](O[C@H]2[C@H](O[C@H]3CC[C@]4(C)[C@H]5CC=C6[C@@H]7CC(C)(C)CC[C@]7(C(=O)OCc7ccccc7)CC[C@@]6(C)[C@]5(C)CC[C@H]4C3(C)C)O[C@H](CO)[C@@H](O[C@@H]3O[C@@H](C)[C@H](O)[C@@H](O)[C@H]3O)[C@@H]2O)[C@H](O)[C@H](O)[C@H]1O | 16.8
C[C@@H]1O[C@@H](O[C@H]2[C@H](O[C@H]3CC[C@]4(C)[C@H]5CC=C6[C@@H]7CC(C)(C)CC[C@]7(C(=O)NCCc7ccccc7)CC[C@@]6(C)[C@]5(C)CC[C@H]4C3(C)C)O[C@H](CO)[C@@H](O[C@@H]3O[C@@H](C)[C@H](O)[C@@H](O)[C@H]3O)[C@@H]2O)[C@H](O)[C@H](O)[C@H]1O | 7.37
C[C@@H]1O[C@@H](O[C@H]2[C@H](O[C@H]3CC[C@]4(C)[C@H]5CC=C6[C@@H]7CC(C)(C)CC[C@]7(C(=O)NCc7ccccc7Br)CC[C@@]6(C)[C@]5(C)CC[C@H]4C3(C)C)O[C@H](CO)[C@@H](O[C@@H]3O[C@@H](C)[C@H](O)[C@@H](O)[C@H]3O)[C@@H]2O)[C@H](O)[C@H](O)[C@H]1O | 9.57
C[C@@H]1O[C@@H](O[C@H]2[C@H](O[C@H]3CC[C@]4(C)[C@H]5CC=C6[C@@H]7CC(C)(C)CC[C@]7(C(=O)NCc7ccccc7)CC[C@@]6(C)[C@]5(C)CC[C@H]4C3(C)C)O[C@H](CO)[C@@H](O[C@@H]3O[C@@H](C)[C@H](O)[C@@H](O)[C@H]3O)[C@@H]2O)[C@H](O)[C@H](O)[C@H]1O | 4.37
COc1ccccc1NC(=O)[C@]12CCC(C)(C)C[C@H]1C1=CC[C@@H]3[C@@]4(C)CC[C@H](O[C@@H]5O[C@H](CO)[C@@H](O[C@@H]6O[C@@H](C)[C@H](O)[C@@H](O)[C@H]6O)[C@H](O)[C@H]5O[C@@H]5O[C@@H](C)[C@H](O)[C@@H](O)[C@H]5O)C(C)(C)[C@@H]4CC[C@@]3(C)[C@]1(C)CC2 | 5.54
COc1ccc(NC(=O)[C@]23CCC(C)(C)C[C@H]2C2=CC[C@@H]4[C@@]5(C)CC[C@H](O[C@@H]6O[C@H](CO)[C@@H](O[C@@H]7O[C@@H](C)[C@H](O)[C@@H](O)[C@H]7O)[C@H](O)[C@H]6O[C@@H]6O[C@@H](C)[C@H](O)[C@@H](O)[C@H]6O)C(C)(C)[C@@H]5CC[C@@]4(C)[C@]2(C)CC3)cc1 | 9.97
C[C@@H]1O[C@@H](O[C@H]2[C@H](O[C@H]3CC[C@]4(C)[C@H]5CC=C6[C@@H]7CC(C)(C)CC[C@]7(C(=O)Nc7ccccc7)CC[C@@]6(C)[C@]5(C)CC[C@H]4C3(C)C)O[C@H](CO)[C@@H](O[C@@H]3O[C@@H](C)[C@H](O)[C@@H](O)[C@H]3O)[C@@H]2O)[C@H](O)[C@H](O)[C@H]1O | 18.1
C[C@@H]1O[C@@H](O[C@H]2[C@H](O[C@H]3CC[C@]4(C)[C@H]5CC=C6[C@@H]7CC(C)(C)CC[C@]7(C(=O)NCc7ccccn7)CC[C@@]6(C)[C@]5(C)CC[C@H]4C3(C)C)O[C@H](CO)[C@@H](O[C@@H]3O[C@@H](C)[C@H](O)[C@@H](O)[C@H]3O)[C@@H]2O)[C@H](O)[C@H](O)[C@H]1O | > 20
C[C@@H]1O[C@@H](O[C@H]2[C@H](O[C@H]3CC[C@]4(C)[C@H]5CC=C6[C@@H]7CC(C)(C)CC[C@]7(C(=O)N(C)Cc7ccccc7)CC[C@@]6(C)[C@]5(C)CC[C@H]4C3(C)C)O[C@H](CO)[C@@H](O[C@@H]3O[C@@H](C)[C@H](O)[C@@H](O)[C@H]3O)[C@@H]2O)[C@H](O)[C@H](O)[C@H]1O | 7.76
C[C@@H]1O[C@@H](O[C@H]2[C@H](O[C@H]3CC[C@]4(C)[C@H]5CC=C6[C@@H]7CC(C)(C)CC[C@]7(C(=O)NCc7ccco7)CC[C@@]6(C)[C@]5(C)CC[C@H]4C3(C)C)O[C@H](CO)[C@@H](O[C@@H]3O[C@@H](C)[C@H](O)[C@@H](O)[C@H]3O)[C@@H]2O)[C@H](O)[C@H](O)[C@H]1O | > 20
O=C(/C=C/c1ccc(O)c2oc(-c3ccc(O)c(O)c3)cc12)O[C@H](Cc1ccc(O)c(O)c1)C(=O)O | 3.85
C[C@@H]1O[C@@H](O[C@H]2[C@H](O[C@H]3CC[C@]4(C)[C@H]5CC=C6[C@@H]7CC(C)(C)CC[C@]7(C(=O)NCc7ccccc7F)CC[C@@]6(C)[C@]5(C)CC[C@H]4C3(C)C)O[C@H](CO)[C@@H](O[C@@H]3O[C@@H](C)[C@H](O)[C@@H](O)[C@H]3O)[C@@H]2O)[C@H](O)[C@H](O)[C@H]1O | 5.68
C[C@@H]1O[C@@H](O[C@H]2[C@H](O[C@H]3CC[C@]4(C)[C@H]5CC=C6[C@@H]7CC(C)(C)CC[C@]7(C(=O)Nc7ccccc7Cl)CC[C@@]6(C)[C@]5(C)CC[C@H]4C3(C)C)O[C@H](CO)[C@@H](O[C@@H]3O[C@@H](C)[C@H](O)[C@@H](O)[C@H]3O)[C@@H]2O)[C@H](O)[C@H](O)[C@H]1O | 6.27
C[C@@H]1O[C@@H](O[C@H]2[C@H](O[C@H]3CC[C@]4(C)[C@H]5CC=C6[C@@H]7CC(C)(C)CC[C@]7(C(=O)NCc7ccccc7Cl)CC[C@@]6(C)[C@]5(C)CC[C@H]4C3(C)C)O[C@H](CO)[C@@H](O[C@@H]3O[C@@H](C)[C@H](O)[C@@H](O)[C@H]3O)[C@@H]2O)[C@H](O)[C@H](O)[C@H]1O | 6.32

Source: BindingDB's records for doi:10.1016/j.ejmech.2021.113242 (South China Agricultural University, 2021)
